Where “and” joins values, the source holds several entries; their conditions need not be identical. Equal values may be shown once.
Biological target: T1, recombinant human Wip1 (1–420) (Homo sapiens, UniProt O15297)
T1 sequence (O15297 1-420): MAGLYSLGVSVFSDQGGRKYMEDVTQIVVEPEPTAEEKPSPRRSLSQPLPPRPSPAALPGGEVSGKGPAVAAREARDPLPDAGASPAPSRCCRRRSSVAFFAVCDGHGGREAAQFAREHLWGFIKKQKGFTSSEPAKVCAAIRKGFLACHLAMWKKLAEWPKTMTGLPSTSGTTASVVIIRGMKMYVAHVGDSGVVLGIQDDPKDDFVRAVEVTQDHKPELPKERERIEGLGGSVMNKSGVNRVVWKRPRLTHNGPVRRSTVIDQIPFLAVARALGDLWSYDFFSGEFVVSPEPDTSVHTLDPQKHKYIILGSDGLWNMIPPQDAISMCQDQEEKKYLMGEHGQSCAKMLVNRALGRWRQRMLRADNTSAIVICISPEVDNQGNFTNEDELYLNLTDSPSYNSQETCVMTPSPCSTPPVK
Assay: Wip1 phosphatase activity inhibition assay
Assay type: biochemical

[1] = variable slope logistic fit of Wip1 inhibition curve
[2] = fixed-slope logistic curve, which assumes the Hill coefficient = 1 (footnote a)

SMILES | Hill coefficient [n] [1] | also measured
O=C(O)c1cccc(CNc2ccccc2CC2CCCCC2)c1 [Compound 14, 3-(((2-(cyclohexylmethyl)phenyl)amino)methyl)benzoic acid] | 1.9 ± 0.4 | Wip1 inhibitory activity (in words): modest inhibition
COc1ccc(CNc2ccc(C(=O)Nc3cccc(OP(=O)(O)O)c3)cc2CC2CCCCC2)cc1 [Compound 22d, 3-(3-(cyclohexylmethyl)-4-((4-methoxybenzyl)amino)benzamido)phenyl dihydrogen phosphate] | 2.0 ± 0.2 | –
O=C(Nc1cccc(OP(=O)(O)O)c1)c1ccc(NCc2cccc(F)c2)c(CC2CCCCC2)c1 [Compound 22f, 3-(3-(cyclohexylmethyl)-4-((3-fluorobenzyl)amino)benzamido)phenyl dihydrogen phosphate] | 3.4 ± 0.4 | –
O=C(Nc1cccc(Cl)c1)c1cccc(CNc2ccc(C(=O)Nc3cccc(OP(=O)(O)O)c3)cc2CCC2CCCCC2)c1 [Compound 40c, 3-(4-((3-((3-chlorophenyl)carbamoyl)benzyl)amino)-3-(2-cyclohexylethyl)benzamido)phenyl dihydrogen phosphate] | 1.0 ± 0.1 | –
O=C(Nc1cccc(OP(=O)(O)O)c1)c1ccc(NCc2ccc(-c3cccc(Cl)c3)cc2)c(CC2CCCCC2)c1 [Compound 22k, 3-(4-(((3’-chloro-[1,1’-biphenyl]-4-yl)methyl)amino)-3-(cyclohexylmethyl)benzamido)phenyl dihydrogen phosphate] | 1.3 ± 0.2 | –
Nc1ccc(C(=O)Nc2cccc(OP(=O)(O)O)c2)cc1CC1CCCCC1 [Compound 22a, 3-(4-amino-3-(cyclohexylmethyl)benzamido)phenyl dihydrogen phosphate] | 1.2 ± 0.10 | –
O=C(Nc1cccc(Cl)c1)c1cccc(CNc2ccc(C(=O)Nc3cccc(O)c3)cc2CCC2CCCCC2)c1 [Compound 38c, 4-((3-((3-chlorophenyl)carbamoyl)benzyl)amino)-3-(2-cyclohexylethyl)-N-(3-hydroxyphenyl)benzamide] | – | Wip1 inhibitory activity (in words): considerable drop in activity; Hill coefficient [n] [2]: 1^a
O=C(Nc1cccc(F)c1)c1cccc(CNc2ccc(C(=O)Nc3cccc(OP(=O)(O)O)c3)cc2CC2CCCCC2)c1 [Compound 40f, 3-(3-(cyclohexylmethyl)-4-((3-((3-fluorophenyl)carbamoyl)benzyl)amino)benzamido)phenyl dihydrogen phosphate] | 3.6 ± 0.2 | –
O=C(Nc1cccc(OP(=O)(O)O)c1)c1ccc(NCc2ccc(F)cc2)c(CC2CCCCC2)c1 [Compound 22g, 3-(3-(cyclohexylmethyl)-4-((4-fluorobenzyl)amino)benzamido)phenyl dihydrogen phosphate] | 3 and 3.0 ± 0.4 | –
O=C(Nc1ccc2c(c1)OCO2)c1cccc(CNc2ccc(C(=O)Nc3cccc(OP(=O)(O)O)c3)cc2CC2CCCCC2)c1 [Compound 40e, 3-(4-((3-(benzo[d][1,3]dioxol-5-ylcarbamoyl)benzyl)amino)-3-(cyclohexylmethyl)benzamido)phenyl dihydrogen phosphate] | 2.9 ± 0.1 | –
O=C(Nc1cccc(OP(=O)(O)O)c1)c1ccc(NCCCc2ccccc2)c(CC2CCCCC2)c1 [Compound 22c, 3-(3-(cyclohexylmethyl)-4-((3-phenylpropyl)amino)benzamido)phenyl dihydrogen phosphate] | – | IC50: 165 µM; Hill coefficient [n] [2]: 1^a
O=C(O)c1cccc(CNc2ccccc2CCC2CCCCC2)c1 [Compound 16, 3-(((2-(2-cyclohexylethyl)phenyl)amino)methyl)benzoic acid] | – | Wip1 inhibitory activity (in words): modest inhibition
O=C(Nc1cccc(OP(=O)(O)O)c1)c1ccc(NCc2ccc(F)cc2)c(Cc2ccccc2)c1 [Compound 29a, 3-(3-benzyl-4-((4-fluorobenzyl)amino)benzamido)phenyl dihydrogen phosphate] | 1.7 ± 0.1 | fold loss in activity (Wip1 IC50) (compared with 22g): 3 fold
COC(=O)c1ccc(NCc2cccc(C(=O)O)c2)c(CCC2CCCCC2)c1 [Compound 17, 3-(((2-(2-cyclohexylethyl)-4-(methoxycarbonyl)phenyl)amino)methyl)benzoic acid] | 4.4 ± 0.4 | –
Nc1ccccc1CCC1CCCCC1 [Compound 12, 2-(2-cyclohexylethyl)aniline] | – | Wip1 inhibitory activity (in words): did not have significant inhibitory activity
CCCCC(CCCC)CNc1ccc(C(=O)Nc2cccc(OP(=O)(O)O)c2)cc1CC1CCCCC1 [Compound 22b, 3-(4-((2-butylhexyl)amino)-3-(cyclohexylmethyl)benzamido)phenyl dihydrogen phosphate] | – | Hill coefficient [n] [2]: 1^a
O=C(Nc1ccc(OP(=O)(O)O)cc1)c1ccc(NCc2ccc(F)cc2)c(CC2CCCCC2)c1 [Compound 32a, 4-(3-(cyclohexylmethyl)-4-((4-fluorobenzyl)amino)benzamido)phenyl dihydrogen phosphate] | 3.4 ± 0.4 | Wip1 inhibitory activity (in words): comparable inhibitory activity with the parent compound 22g
O=C(Nc1cccc(Cl)c1)c1cccc(CNc2ccc(C(=O)Nc3cccc(OP(=O)(O)O)c3)cc2C2CC3CCC2C3)c1 (stereo not drawn) [Compound 40d, 3-(3-(bicyclo[2.2.1]heptan-2-yl)-4-((3-((3-chlorophenyl)carbamoyl)benzyl)amino)benzamido)phenyl dihydrogen phosphate] | 2.3 ± 0.4 | –
Nc1ccccc1CC1CCCCC1 [Compound 10, 2-(cyclohexylmethyl)aniline] | – | Wip1 inhibitory activity (in words): did not have significant inhibitory activity
O=C(Nc1cccc(OP(=O)(O)O)c1)c1ccc(NCc2ccc(F)cc2)cc1 [Compound 29b, 3-(4-((4-fluorobenzyl)amino)benzamido)phenyl dihydrogen phosphate] | – | Wip1 inhibitory activity (in words): almost complete loss of inhibitory activity; Hill coefficient [n] [2]: 1^a
COc1cc(OC)cc(-c2ccc(CNc3ccc(C(=O)Nc4cccc(OP(=O)(O)O)c4)cc3CC3CCCCC3)cc2)c1 [Compound 22j, 3-(3-(cyclohexylmethyl)-4-(((3’,5’-dimethoxy-[1,1’-biphenyl]-4-yl)methyl)amino)benzamido)phenyl dihydrogen phosphate] | 1.8 ± 0.1 | –
O=C(Nc1cccc(OP(=O)(O)O)c1)c1ccc(NCc2cccnc2)c(CC2CCCCC2)c1 [Compound 22n, 3-(3-(cyclohexylmethyl)-4-((pyridin-3-ylmethyl)amino)benzamido)phenyl dihydrogen phosphate] | 1.6 ± 0.2 | fold less active (Wip1 IC50) (compared with 22m): 5 fold
COc1cccc(CNc2ccc(C(=O)Nc3cccc(OP(=O)(O)O)c3)cc2CC2CCCCC2)c1 [Compound 22e, 3-(3-(cyclohexylmethyl)-4-((3-methoxybenzyl)amino)benzamido)phenyl dihydrogen phosphate] | 1.3 ± 0.3 | –
O=C(Nc1cccc(OP(=O)(O)O)c1)c1ccc(NCc2ccc3ccccc3c2)c(CC2CCCCC2)c1 [Compound 22h, 3-(3-(cyclohexylmethyl)-4-((naphthalen-2-ylmethyl)amino)benzamido)phenyl dihydrogen phosphate] | – | Wip1 inhibitory activity (in words): weak activity; Hill coefficient [n] [2]: 1^a
COC(=O)c1ccc(NCc2cccc(C(=O)O)c2)c(CC2CCCCC2)c1 [Compound 15, 3-(((2-(cyclohexylmethyl)-4-(methoxycarbonyl)phenyl)amino)methyl)benzoic acid] | 2.8 ± 0.5 | –
O=C(Nc1cccc(OP(=O)(O)O)c1)c1ccc(NCc2ccc(-c3cccc(F)c3)cc2)c(CC2CCCCC2)c1 [Compound 22l, 3-(3-(cyclohexylmethyl)-4-(((3’-fluoro-[1,1’-biphenyl]-4-yl)methyl)amino)benzamido)phenyl dihydrogen phosphate] | 1.7 ± 0.4 | –
O=C(Nc1cccc(Cl)c1)c1ccc(CNc2ccc(C(=O)Nc3cccc(OP(=O)(O)O)c3)cc2CC2CCCCC2)cc1 [Compound 40a, 3-(4-((4-((3-chlorophenyl)carbamoyl)benzyl)amino)-3-(cyclohexylmethyl)benzamido)phenyl dihydrogen phosphate] | 1.9 ± 0.2 | –
O=C(Nc1cccc(OP(=O)(O)O)c1)c1ccc(NCc2cc3ccccc3o2)c(CC2CCCCC2)c1 [Compound 22m, 3-(4-((benzofuran-2-ylmethyl)amino)-3-(cyclohexylmethyl)benzamido)phenyl dihydrogen phosphate] | 1.5 ± 0.1 | –
